The values that follow come from patent US20260373102A1, “INJECTABLE GUANFACINE FORMULATIONS AND METHODS” (Cumberland Pharmaceuticals Inc., priority 2023, published 2026).

Format in all cases: physicochemical
A short description of data set [1]: Guanfacine solubility at pH 7.0 and 8.0. The settings on record: for solubility at 1 h: sodium phosphate buffer, aqueous buffer, 0.22 μm filtered, HPLC, read-out: concentration of filtered sample (solubility). Here is the method: Stock solutions of acetic acid and sodium acetate were used for making another pH 4.0 sample and a pH 5.0 sample. For the pH 4.0 sample, 920 μL of acetic acid was added to 80 μL of sodium acetate and then the final solution was prepared as described above to achieve a 5 mM buffer concentration. For the pH 5.0 sample, 700 μL of acetic acid was added to 1,300 μL of sodium acetate and 1.0 mLs of that buffer stock solution was added to make a final buffer concentration of 20 mM. With the exception of the buffer concentration, the pH 5.0 sample solution was completed as described above. Another sample solution was also made at 20 mM sodium acetate, pH 5.0, except the solvent was sparged with nitrogen and the head space of the vial was purged with nitrogen just prior to stoppering in order to remove air from the sample. For the pH 6.0 sample, a stock solution with 1,840 μL of 0.5 M sodium phosphate monobasic and 160 μL of 0.5 M sodium phosphate dibasic was made that was then diluted to 10 mM sodium phosphate by adding 1.0 mL to a final of 50 grams of solution. The solution was then completed as described previously.
Follow up testing was done to confirm that Guanfacine solubility was lower at pH 7.0 and 8.0 compared to the other samples made at pH levels≤6.0. For the pH 7.0 sample, a stock solution of 0.192 mL of 0.5 M sodium phosphate monobasic and 0.208 mLs of 0.5 M sodium phosphate dibasic was added to a glass tube followed by ~8.0 mLs of WFI and ~11.5 mg of Guanfacine-HCl. The solution was then adjusted to pH 7.0 with a solution of 0.2 N NaOH and adjusted to a volume of 10 mLs with WFI. For the pH 8.0 sample, a stock solution of 0.028 mL of 0.5 M sodium phosphate monobasic and 0.372 mLs of 0.5 M sodium phosphate dibasic was added to a glass tube followed by ~8.0 mLs of WFI and 11.48 mg of Guanfacine-HCl. The solution was then adjusted to pH 8.0 with a solution of 0.2 N NaOH and adjusted to a volume of 10 mLs with WFI. […] After 1 hour of sonication both samples were then filtered through a 0.22 μm PVDF filter and analyzed by HPLC. The concentration of the filtered pH 7.0 sample was ~0.35 mg/mL and the concentration of the filtered pH 8.0 sample was ~0.12 mg/mL. Therefore Guanfacine-HCl was less soluble at pH 7.0 and 8.0 compared to pH levels of 6.0 and lower.

A short description of data set [2]: Compatibility of Guanfacine with Ropivacaine (appearance, pH, particulate matter). The settings on record: for Particulate Matter 10 μm / Particulate Matter 25 μm: Guanfacine only in WFI, filtered, before mixing; for concentration of Guanfacine freebase in the WFI control: HPLC. Here is the method:
The compatibility of 1.0 mg/mL and 0.1 mg/mL solutions of Guanfacine diluted into 30 mL Ropivacaine (USP 5 mg/mL Hospira, Lot-48-031-DK) was tested. A 0.1 and 1.0 mg/mL solution of Guanfacine free base in water for injection (WFI) was prepared. For every 1.148 mg of Guanfacine-HCl there is 1 mg of Guanfacine free base. For the 0.1 mg/mL solution, 57.4 mg of Guanfacine-HCl (lot #CPL-01-2013-014-033 Laxai Avanti) was dissolved in 400 mL of WFI (Hospira 1000 mL Bag, Lot 51-114-JT). Once fully dissolved, the solution was transferred to a 500 mL volumetric flask and q.s. to volume. For the 1.0 mg/mL solution, 114.8 mg of Guanfacine-HCl was dissolved in 80 mL of WFI. Once fully dissolved, the solution was transferred to a 100 mL volumetric flask and q.s. to volume.
Two glass vials were rinsed with WFI three times and emptied. The vials were rinsed with filtered Guanfacine solution three times, 5 mLs at a time. Approximately 35 mLs of the Guanfacine solutions were filtered into the vials using a Millex GV Sterile PVDF 0.22 μm syringe filter. The particulate content in the filtered Guanfacine solutions was determined prior to adding to the Ropivacaine vial using an APSS Liquiliaz particle counter. 1.2 mLs of filtered Guanfacine solutions at 0.1 or 1.0 mg/mL were injected into three separate vials containing Ropivacaine for each concentration (1:25 dilution of Guanfacine:Ropivacaine). The concentration of Guanfacine freebase in the WFI control was 0.10 mg/mL and 1.05 mg/mL, as determined by HPLC. The compatibility solutions were not able to be analyzed by the HPLC assay for Guanfacine because Guanfacine and Ropivacaine have very similar elution times and only the Ropivacaine peak could be seen on the chromatogram.
The appearance, pH, and particulate content for one vial at each concentration at time zero, 4 to 6 hours, and 24 hours was assessed and the results are reported in Table 1, below.

Data set [3] in a line: Chemical stability of Guanfacine solutions in WFI at room temperature (vials, IV bags; HPLC). The settings on record: for degraded at 72 h: 0.5 mg/mL. The procedure:
Guanfacine HCl powder (Laxai Avanti, Lot CPL-01-2013-014-033) was dissolved in WFI at a concentration of 0.5 mg/mL, passed through a 0.22 μm PVDF membrane in a biosafety cabinet, and then filled into 20 mL glass vials (particle free), or 150 ml polyolefin IV bags. The vials and IV bags were stored at room temperature conditions. The Guanfacine solutions in the vials and IV bags were at pH 5.7 and 5.0, respectively. After 72 hours at room temperature the Guanfacine solution in the vials formed a degradation product at 0.23% and the Guanfacine solution in the IV bags formed a degradation product at 0.16%.
Additionally, Guanfacine HCl (Laxai Avanti, Lot CPL-01-2013-014-033) was dissolved in WFI to a final concentration of 1.14 mg/mL, pH 4.5, passed through a 0.22 μm PVDF membrane in a biosafety cabinet, and then filled into glass vials. The glass vials were stored at room temperature conditions.

Structures can show the parent of a compound that is named as a salt. Where two headings read alike, the source gives them in different places.

Consider `N=C(N)NC(=O)Cc1c(Cl)cccc1Cl` [Guanfacine], for which the “dissolution at 1 mg/mL” value in data set [1] (pH 7.0, 1 mg/mL) is given as “did not completely dissolve”. Moreover, the “compatibility with Ropivacaine” value in data set [2] (1.0 mg/mL in WFI, 1:25 dilution of Guanfacine to Ropivacaine) was “compatible with Ropivacaine”. The results for the “Particulate Matter 10 μm” value in data set [2] (0.1 mg/mL) and in data set [2] (1 mg/mL) were 0 Particles per mL and 6 Particles per mL, respectively. The “Particulate Matter 25 μm” value in data set [2] (0.1 mg/mL) and in data set [2] (1 mg/mL) was 0 Particles per mL each time. For the same molecule, the “concentration of Guanfacine freebase in the WFI control” value in data set [2] (nominal 0.1 mg/mL) was found to be 100 µg/mL; in data set [2] (nominal 1.0 mg/mL), 1050 µg/mL. Also, the “Area % of guanfacine peak (peak 1)” value is given as 99.94% in data set [3] (0.5 mg/mL in WFI in IV bags, pH 5.0, time zero, RRT 1.00) and 99.94% in data set [3] (0.5 mg/mL in WFI in vials, pH 5.7, time zero, RRT 1.00). The “Area % of peak 2 (degradation product)” value in data set [3] (0.5 mg/mL in WFI in IV bags, pH 5.0, time zero, RRT 8.77) turned out to be 0.06%. Besides, the “Area % of peak 2” value in data set [3] (0.5 mg/mL in WFI in vials, pH 5.7, 24 hours, RRT 1.31) amounted to 0.02%; in data set [3] (0.5 mg/mL in WFI in vials, pH 5.7, 72 hours, RRT 1.32), 0.01%; in data set [3] (0.5 mg/mL in WFI in vials, pH 5.7, time zero, RRT 1.31) it was 0.01%. The “Area % of peak 3” value in data set [3] (0.5 mg/mL in WFI in vials, pH 5.7, 72 hours, RRT 4.31) was found to be 0.01%. The “Area % of peak 4 (degradation product)” value in data set [3] (0.5 mg/mL in WFI in vials, pH 5.7, time zero, RRT 8.58) stood at 0.05%. The remaining at 24 h in data set [3] (water, 0.5 mg/mL in WFI in IV bags, pH 5.0, 24 hours, RRT 1.00, read-out: Area % of guanfacine peak (peak 1)) turned out to be 99.8%; in data set [3] (water, 0.5 mg/mL in WFI in vials, pH 5.7, 24 hours, RRT 1.00, read-out: Area % of guanfacine peak (peak 1)), 99.9%. In addition, the degraded at 24 h in data set [3] (water, 0.5 mg/mL in WFI in IV bags, pH 5.0, 24 hours, RRT 8.79, read-out: Area % of peak 2 (degradation product)) was 0.15%; in data set [3] (water, 0.5 mg/mL in WFI in vials, pH 5.7, 24 hours, RRT 8.58, read-out: Area % of peak 4 (degradation product)) it was 0.1%. Moreover, the remaining at 72 h in data set [3] (water, 0.5 mg/mL in WFI in IV bags, pH 5.0, 72 hours, RRT 1.00, read-out: Area % of guanfacine peak (peak 1)) is 99.8%; in data set [3] (water, 0.5 mg/mL in WFI in vials, pH 5.7, 72 hours, RRT 1.00, read-out: Area % of guanfacine peak (peak 1)), 99.8%. Also, the degraded at 72 h in data set [3] (water, IV bags, pH 5.0, 72 hours at room temperature, read-out: degradation product formed) turned out to be 0.16%; in data set [3] (water, vials, pH 5.7, 72 hours at room temperature, read-out: degradation product formed) it was 0.23%. Further, the degraded at 168 h in data set [3] (water, glass vials, pH 4.5, one week at room temperature, 1.14 mg/mL, read-out: degradation product formed) was 0.26%.

Regarding `N=C(N)NC(=O)Cc1c(Cl)cccc1Cl` [Guanfacine-HCl, N-amidino-2-(2,6-dichlorophenyl) acetamide monohydrochloride], the “solubility compared to pH levels of 6.0 and lower” value in data set [1] (pH 7.0 and 8.0) was “less soluble”. Further, in data set [1] (pH 7.0 and pH 8.0 samples (both), after 1 hour of sonication), the appearance of solution result was “cloudy and contained precipitate”. For the same molecule, the solubility at 1 h in data set [1] (pH 7.0, sodium phosphate, after 1 hour of sonication) was approximately 350 µg/mL; in data set [1] (pH 8.0, sodium phosphate, after 1 hour of sonication) it was approximately 120 µg/mL. The “Area % of peak 2” value in data set [3] (1.14 mg/mL Guanfacine-HCl in WFI, pH 4.5, glass vials, 1 week, RRT 1.44) is 0.02%; in data set [3] (1.14 mg/mL Guanfacine-HCl in WFI, pH 4.5, glass vials, time zero, RRT 1.45), 0.02%. Also, the “Area % of peak 3 (degradation product)” value in data set [3] (1.14 mg/mL Guanfacine-HCl in WFI, pH 4.5, glass vials, 1 week, RRT 8.72, 10080 min) is 0.26%. The “Area % of guanfacine peak (peak 1)” value in data set [3] (1.14 mg/mL Guanfacine-HCl in WFI, pH 4.5, glass vials, time zero, RRT 1) worked out at 99.98%. Also, the remaining at 168 h in data set [3] (water, 1.14 mg/mL Guanfacine-HCl in WFI, pH 4.5, glass vials, 1 week, RRT 1, read-out: Area % of guanfacine peak (peak 1)) was determined as 99.7%.
